Results from patent EP0944628B1, “HETERO-BIARYL-PYRIDOQUINAZOLINONE DERIVATIVES AS ANTI-CANCER AGENTS” (American Cyanamid Company, priority 1996, dated 1998).
Converted amounts (≈) assume the structure as drawn.

Key:
A2780 DDP cells = assay: Two cell line test procedure, in vitro cytotoxicity (sulforhodamine B), A2780 DDP; format: cell-based; conditions: Homo sapiens; A2780 DDP cells (cisplatin-resistant), 48 hours exposure
Experimental: (§1) A2780 S and A2780 DDP cells [Biochemical and Molecular Properties of Cisplatin-resistant A2780 Cells Grown in Folinic Acid; Y. Lu, J. Hnan, and K. Scanlon, J. Biol. Chem., 263, 4891-4894, 1988.] are grown in RPMI 1640 medium containing 5% fetal calf serum, 50 µg/ml streptomycin, 50 units/ml penicillin, 50 µg/ml gentamycin, 0.03% L-glutamine, 1 nM estradiol, 1 nM testosterone, 5 µg/ml insulin, 5 µg/ml transferrin, and 5 ng/ml selenous acid, at 37°C, in a humidified atmosphere, containing 5% CO2. Experiments are done in the same media.
(§2) Cells are plated at the concentration of 5 x 10^4/ml on Day 0 of the experiment. On Day one cells are fixed with trichloroacetic acid and 5 ten-fold dilutions of tested compounds are added, in duplicates, to the remaining cells. On Day 3 (48 hours exposure to drugs) all cells are fixed with trichloroacetic acid, stained with 0.4% sulforhodamine B, and absorbency is read at 520 nm. The IC50 (concentration causing 50% inhibition) are determined for each drug.

A2780 S cells = assay: Two cell line test procedure, in vitro cytotoxicity (sulforhodamine B), A2780 S; format: cell-based; conditions: Homo sapiens, A2780S, 48 hours exposure
Experimental: as §1, §2

[1] = tested on: Colon 26 Advanced, Metastatic Tumor; assay: Murine Colon 26 advanced, metastatic tumor, increase in mean life span; format: in vivo, CD2F1 mice; conditions: days 5,9,13
Experimental: CD2F1 mice are injected i.p. with 5 x 10^5 tumor cells on Day 0 of the test. Drugs are administered i.p. on Days 5, 9, and 13 after the tumor implantation. Positive drug response is indicated by a more than 25% increase in the mean life span (% ILS), relative to placebo treated controls. Drugs are considered to be toxic when the mean life span of the drug treated animals is more than 15% shorter than placebo treated controls.

P388 Leukemia = assay: Murine P388 leukemia, increase in mean life span; format: in vivo, CD2F1 mice; conditions: days 1,5,9
Experimental: CD2F1 mice are injected i.p. with 1 x 10^6 tumor cells on Day 0 of the test. Drugs are administered i.p. on Days 1, 5, and 9 after the tumor implantation. Positive drug response is indicated by a more than 25% increase in the mean life span (% ILS), relative to placebo treated controls. Drugs are considered to be toxic when the mean life span of the drug treated animals is more than 15% shorter than placebo treated controls.

P388 = conditions: literature report; cited from earlier work

SMILES | IC50 (A2780 DDP cells) | IC50 (A2780 S cells) | % ILS ([1]; COLON 26, dose 100 mg/kg i.p.) | % ILS ([1]; COLON 26, dose 200 mg/kg i.p.) | % ILS ([1]; COLON 26, dose 300 mg/kg i.p.) | % ILS (P388 Leukemia; P388, dose 50 mg/kg i.p.) | % ILS (P388 Leukemia; P388, dose 100 mg/kg i.p.) | % ILS (P388 Leukemia; P388, dose 200 mg/kg i.p.) | also measured
CN(C)CCNC(=O)c1cccn2c(=O)c3cc(-c4cnc5ccccc5c4)ccc3nc12 [Example 10, N-[2-(Dimethylamino)ethyl]-11-oxo-2-(3-quinolinyl)-11H-pyrido[2,1-b]quinazoline-6-carboxamide] | 5.3 µg/mL (≈ 12.1 µM) | 4.5 µg/mL (≈ 10.3 µM) | – | – | – | – | – | – | –
CN(C)CCNC(=O)c1cccn2c(=O)c3ccc(-c4cccnc4)cc3nc12 [Example 15, N-[2-(Dimethylamino)ethyl]-11-oxo-3-(3-pyridinyl)-11H-pyrido-[2,1-b]quinazoline-6-carboxamide] | 0.7 µg/mL (≈ 1.81 µM) | 0.6 µg/mL (≈ 1.55 µM) | +15% | +64% | -3% | +8% | +18% | +37% | –
CC[C@]1(O)C[C@H]2CN(CCc3c([nH]c4ccccc34)[C@@](C(=O)OC)(c3cc4c(cc3OC)N(C=O)[C@H]3[C@@](O)(C(=O)OC)[C@H](OC(C)=O)[C@]5(CC)C=CCN6CC[C@]43[C@@H]65)C2)C1 [Vincristine, reference compound] | – | – | – | – | – | – | – | – | % ILS (P388 Leukemia; P388, dose 0.8 mg/kg i.p.): +114%
COc1cccc2c1C(=O)c1c(O)c3c(c(O)c1C2=O)C[C@@](O)(C(=O)CO)C[C@@H]3O[C@H]1C[C@H](N)[C@H](O)[C@H](C)O1 [Adriamycin, reference compound] | – | – | – | – | – | – | – | – | % ILS ([1]; COLON 26, dose 4 mg/kg i.p.): +70%
CN(C)CCNC(=O)c1cccn2c(=O)c3ccc(-c4ccncc4)cc3nc12 [Example 16, N-[2-(Dimethylamino)ethyl]-11-oxo-3-(4-pyridinyl)-11H-pyrido-[2,1-b]quinazoline-6-carboxamide] | 8.6 µg/mL (≈ 22.2 µM) | 7 µg/mL (≈ 18.1 µM) | – | – | – | – | – | – | –
CN(C)CCNC(=O)c1cccn2c(=O)c3ccccc3nc12 [I, N-[2-(dimethylamino)ethyl]-11-oxo-11H-pyrido[2,1-b]quinalzoline-6-carboxamide] | – | – | – | – | – | – | – | – | activity in a P388 mouse model (P388): inactive
CN(C)CCNC(=O)c1cccn2c(=O)c3cc(-c4cccnc4)ccc3nc12 [Example 06, N-[2-(Dimethylamino)ethyl]-11-oxo-2-(3-pyridinyl)-11H-Pyrido-[2,1-b]quinazoline-6-carboxamide] | 5 µg/mL (≈ 12.9 µM) | 0.9 µg/mL (≈ 2.32 µM) | +9% | +15% | +21% | +16% | +22% | +47% | –
O=C(NCCN1CCCC1)c1cccn2c(=O)c3cc(-c4ccncc4)ccc3nc12 [Example 08, 11-Oxo-2-(4-pyridinyl)-N-[2-(1-pyrrolidinyl)ethyl]-11H-pyrido-[2,1-b]quinazoline-6-carboxamide] | 3.7 µg/mL (≈ 8.95 µM) | 0.8 µg/mL (≈ 1.93 µM) | – | – | – | – | – | – | –
CN(C)CCNC(=O)c1cccn2c(=O)c3cc(-c4ccncc4)ccc3nc12 [Example 07, N-[2-(Dimethylamino)ethyl]-11-oxo-2-(4-pyridinyl)-11H-pyrido-[2,1-b]quinazoline-6-carboxamide] | 5.6 µg/mL (≈ 14.5 µM) | 0.7 µg/mL (≈ 1.81 µM) | -15% | -52% | -58% | +20% | +29% | +49% | –
